Laboratory results taken from ChEMBL document CHEMBL1201862, “PubChem BioAssay data set” (2004).
Activity calls are given as the source filed them.

Key:
[1] = blockade of melanocortin 4 receptor signaling – cell-based, plate reader, cherry pick, counter-screen for LGR2 antagonist project, dose response (AID 743444); assay type: functional;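 also: transfected HEK 293 cells stimulated with alpha-MSH peptide; potency of inhibitors of the alpha-MSH evoked signal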
[2] = blockers of bursicon-stimulated LGR2 cAMP reporter – cell-based, HEK293, CRE-luciferase reporter, cherry pick, set 2, dose response (AID 743343); assay type: functional;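 also: transfected cells were stimulated with diluted bursicon conditioned medium after compound addition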
HEK293 = experiment: EBV LMP1 TES2 canonical NF-kB signalling blockers – cell-based, HEK293, luciferase, cherry-pick, dose response (AID 588343); assay type: functional; details: Homo sapiens
[3] = target: T1, Carboxy-terminal domain RNA polymerase II polypeptide A small phosphatase 1 (Homo sapiens, UniProt Q9GZU7); experiment: CTDSP1 inhibitors, concentration-response, biochemical, absorbance readout, ultra-high-throughput screen actives (AID 540297); assay type: functional
T1 sequence (Q9GZU7 whole entry): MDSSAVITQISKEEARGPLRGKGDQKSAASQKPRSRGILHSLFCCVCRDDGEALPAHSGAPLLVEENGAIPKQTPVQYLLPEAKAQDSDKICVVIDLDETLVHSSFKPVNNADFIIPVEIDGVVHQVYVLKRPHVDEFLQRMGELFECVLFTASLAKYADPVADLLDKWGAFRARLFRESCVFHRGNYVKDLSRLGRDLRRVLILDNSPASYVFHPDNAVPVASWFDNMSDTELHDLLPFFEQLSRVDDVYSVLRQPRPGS

[4] = NIH-3T3 fibroblast cytotoxicity, dose response, cytotoxicity control, cell-based, fluorescence, Alamar Blue, secondary assay (AID 2327); assay type: functional;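 also: NIH-3T3 mouse fibroblasts cultured with fluconazole at 8 µg/mL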
Vero [5] = experiment: cells; assay type: functional, cell-based; details: Chlorocebus sabaeus
Vero [6] = experiment: cells; assay type: functional; details: Chlorocebus sabaeus
[7] = target: Heat shock protein HSP 90-alpha (Homo sapiens, UniProt P07900); assay type: functional, organism-based
INS1 = experiment: INS-1E survival protection against cytokine death – cell-based, luminescence, retest, dose response (AID 449756); assay type: functional; details: Rattus norvegicus;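 also: cell death triggered by IL-1 beta plus TNF-alpha plus IFN-gamma mixture; protective hits raise ATP signal compared with cytokine alone wells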
[8] = fluconazole-exposed Candida albicans growth modulators – fluorescence, retest, confirmation (AID 2467); assay type: functional, cell-based
[9] = loss of viability in HepG2 cells – cell-based, CellTiter-Glo, cherry-picked, cytotoxicity control for Shn3 inhibitor project, dose response (AID 624134); assay type: functional
[10] = reduction of Shn3 3'UTR-driven luciferase in osteoblasts – cell-based, Clone20 osteoblasts, firefly luciferase, cherry-picked, dose response (AID 624132); assay type: functional;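 also: firefly luciferase luminescence from reporter carrying the Shn3 3'UTR in osteoblasts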
[11] = Luminescence Cell-Based Dose Retest to Confirm Inhibitors of Cancer Stem Cells. [Related pubchem assays (depositor defined):AID2717, AID2721]; assay type: functional; details: Homo sapiens
[12] = general cell-killing toxicity readout – plate reader, dry powder samples, cytotoxicity control for PAX8 inhibitor project, dose response (AID 743021); assay type: functional, cell-based
Paired box protein Pax-8 = Paired box protein Pax-8 (Homo sapiens, UniProt Q06710); experiment: PAX8 transcriptional activity inhibition in RMG-I – RMG-I cells, luciferase, cherry-pick, dose response (AID 687027); assay type: functional, cell-based;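 also: luciferase reporter driven by Pax8 target thyroperoxidase promoter measured by SteadyGlo luminescence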
Sequence of Paired box protein Pax-8 (Q06710 whole entry): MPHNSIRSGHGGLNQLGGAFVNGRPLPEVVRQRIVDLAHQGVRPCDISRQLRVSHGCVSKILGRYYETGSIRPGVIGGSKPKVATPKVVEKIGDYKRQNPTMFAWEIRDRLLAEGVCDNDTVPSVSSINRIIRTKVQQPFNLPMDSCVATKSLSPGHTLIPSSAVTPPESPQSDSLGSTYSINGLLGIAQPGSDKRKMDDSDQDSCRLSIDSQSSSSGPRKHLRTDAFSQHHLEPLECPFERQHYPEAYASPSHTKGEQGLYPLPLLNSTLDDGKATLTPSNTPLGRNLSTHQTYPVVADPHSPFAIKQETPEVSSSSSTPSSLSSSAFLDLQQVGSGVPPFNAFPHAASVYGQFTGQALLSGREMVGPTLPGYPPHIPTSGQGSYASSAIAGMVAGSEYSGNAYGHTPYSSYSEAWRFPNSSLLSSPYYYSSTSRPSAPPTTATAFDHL

Genome polyprotein = Genome polyprotein (dengue virus type 2, UniProt P29990); experiment: flavivirus cap methylation enzyme inhibition – biochemical, confirmation dose response, primary screen (AID 588689); assay type: functional
Sequence of Genome polyprotein (P29990 2492-3391 limits assumed): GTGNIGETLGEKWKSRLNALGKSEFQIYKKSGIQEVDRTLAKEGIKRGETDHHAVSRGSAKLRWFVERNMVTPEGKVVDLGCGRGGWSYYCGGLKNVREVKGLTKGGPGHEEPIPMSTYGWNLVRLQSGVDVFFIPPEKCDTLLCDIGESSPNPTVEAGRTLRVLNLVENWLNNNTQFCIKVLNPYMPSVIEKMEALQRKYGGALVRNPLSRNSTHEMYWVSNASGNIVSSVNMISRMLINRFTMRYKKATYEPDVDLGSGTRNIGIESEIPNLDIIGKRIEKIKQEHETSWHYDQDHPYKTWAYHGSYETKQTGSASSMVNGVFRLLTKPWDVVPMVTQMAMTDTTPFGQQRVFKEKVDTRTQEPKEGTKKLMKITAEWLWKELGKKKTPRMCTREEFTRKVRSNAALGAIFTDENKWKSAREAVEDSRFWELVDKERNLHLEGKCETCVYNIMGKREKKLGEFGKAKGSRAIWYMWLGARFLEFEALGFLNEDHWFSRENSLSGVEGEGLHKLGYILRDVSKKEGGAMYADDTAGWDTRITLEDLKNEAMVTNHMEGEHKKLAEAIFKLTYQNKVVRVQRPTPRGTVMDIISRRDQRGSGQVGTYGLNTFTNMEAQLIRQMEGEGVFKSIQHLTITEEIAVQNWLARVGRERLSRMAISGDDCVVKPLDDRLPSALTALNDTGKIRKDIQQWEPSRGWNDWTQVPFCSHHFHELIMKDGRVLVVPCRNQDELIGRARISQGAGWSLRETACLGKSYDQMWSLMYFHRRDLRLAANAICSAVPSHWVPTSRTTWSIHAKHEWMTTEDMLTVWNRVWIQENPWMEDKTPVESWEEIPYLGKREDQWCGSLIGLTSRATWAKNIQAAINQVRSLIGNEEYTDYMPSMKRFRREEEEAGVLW

Vero [13] = experiment: viability of Vero cells under compound – cytotoxicity control for flavivirus capping enzyme inhibitors (AID 588742); assay type: functional; details: Chlorocebus sabaeus
Cytochrome P450 2C9 = Cytochrome P450 2C9 (Homo sapiens, UniProt P11712)
Sequence of Cytochrome P450 2C9 (P11712 whole entry): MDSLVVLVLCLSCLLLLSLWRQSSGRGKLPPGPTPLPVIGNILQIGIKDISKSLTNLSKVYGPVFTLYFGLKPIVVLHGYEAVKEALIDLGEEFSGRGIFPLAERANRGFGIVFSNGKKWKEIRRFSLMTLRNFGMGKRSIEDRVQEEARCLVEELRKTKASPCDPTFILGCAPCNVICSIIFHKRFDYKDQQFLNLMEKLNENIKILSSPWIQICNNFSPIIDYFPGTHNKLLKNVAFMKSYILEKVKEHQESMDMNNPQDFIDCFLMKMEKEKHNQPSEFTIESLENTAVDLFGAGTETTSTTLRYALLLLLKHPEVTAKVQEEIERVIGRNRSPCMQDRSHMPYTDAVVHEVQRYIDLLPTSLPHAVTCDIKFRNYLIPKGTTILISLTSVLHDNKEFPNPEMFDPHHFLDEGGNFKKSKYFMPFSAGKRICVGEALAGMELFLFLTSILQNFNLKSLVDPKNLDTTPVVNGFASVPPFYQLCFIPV

Cytochrome P450 2D6 = Cytochrome P450 2D6 (Homo sapiens, UniProt P10635);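 also: CYP2D6 member of a cytochrome P450 panel assay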
Sequence of Cytochrome P450 2D6 (P10635 whole entry): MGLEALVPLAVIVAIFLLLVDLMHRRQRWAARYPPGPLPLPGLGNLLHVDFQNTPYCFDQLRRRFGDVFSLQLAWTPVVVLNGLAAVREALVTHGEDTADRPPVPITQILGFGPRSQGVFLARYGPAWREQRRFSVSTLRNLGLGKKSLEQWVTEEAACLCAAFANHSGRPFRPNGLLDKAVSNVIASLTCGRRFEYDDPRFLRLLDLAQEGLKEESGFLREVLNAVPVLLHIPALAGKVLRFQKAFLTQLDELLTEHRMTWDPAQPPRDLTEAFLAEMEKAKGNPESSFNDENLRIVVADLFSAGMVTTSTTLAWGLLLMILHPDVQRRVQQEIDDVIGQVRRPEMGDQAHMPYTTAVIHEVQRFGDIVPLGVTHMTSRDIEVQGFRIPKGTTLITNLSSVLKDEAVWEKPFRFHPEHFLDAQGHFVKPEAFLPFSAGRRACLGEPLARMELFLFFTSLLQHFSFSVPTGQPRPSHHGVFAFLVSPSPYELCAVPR

Cytochrome P450 1A2 = target: T2, Cytochrome P450 1A2 (Homo sapiens, UniProt P05177);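 also: PubChem cytochrome P450 panel assay, CYP1A2 panel member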
T2 sequence (P05177 whole entry): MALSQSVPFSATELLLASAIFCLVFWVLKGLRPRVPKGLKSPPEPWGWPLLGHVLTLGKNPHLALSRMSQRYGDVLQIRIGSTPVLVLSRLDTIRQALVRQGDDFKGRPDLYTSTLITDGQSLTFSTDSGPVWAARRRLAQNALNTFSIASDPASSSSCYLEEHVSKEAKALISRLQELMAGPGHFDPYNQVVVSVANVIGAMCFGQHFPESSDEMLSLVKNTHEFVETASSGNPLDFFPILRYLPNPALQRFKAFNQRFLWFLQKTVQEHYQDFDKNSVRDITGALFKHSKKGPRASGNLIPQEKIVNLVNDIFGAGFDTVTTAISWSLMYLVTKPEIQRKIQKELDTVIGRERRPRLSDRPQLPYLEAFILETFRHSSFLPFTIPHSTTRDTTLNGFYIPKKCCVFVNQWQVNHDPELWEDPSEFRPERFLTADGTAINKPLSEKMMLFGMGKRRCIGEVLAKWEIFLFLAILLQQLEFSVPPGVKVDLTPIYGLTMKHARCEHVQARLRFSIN

[14] = blockers of HIV-1 ZM109 envelope-driven cell-cell fusion – HeLa effector, CEM target cells, luciferase, cherry-pick, dose response (AID 652058); assay type: functional, cell-based;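 also: luciferase signal from HIV-1 Env mediated cell-cell fusion of effector and target cells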
[15] = HIV-1 AD8 envelope cell-cell fusion blockers – cherry-pick, dose response (AID 652062); assay type: functional, cell-based;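 also: luciferase signal from cell-cell fusion driven by HIV-1 clade B AD8 Env; potency is for inhibitors of fusion seen as a drop in luminescence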
[16] = blockers of HIV-1 envelope-mediated cell-cell fusion – cherry-pick, dose response (AID 652057); assay type: functional, cell-based
Nonstructural protein 1 = Nonstructural protein 1 (Influenza A virus, UniProt Q194T2); assay type: functional, Influenza A virus (A/California/07/2009(H1N1))
Sequence of Nonstructural protein 1 (Q194T2 whole entry): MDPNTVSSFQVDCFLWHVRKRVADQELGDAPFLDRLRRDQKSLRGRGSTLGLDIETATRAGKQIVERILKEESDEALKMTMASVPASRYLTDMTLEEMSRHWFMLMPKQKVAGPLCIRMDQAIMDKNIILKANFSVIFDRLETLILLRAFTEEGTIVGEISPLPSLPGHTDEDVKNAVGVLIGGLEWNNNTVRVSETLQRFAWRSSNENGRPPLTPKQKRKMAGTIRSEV

Protein RecA = target: T3, Protein RecA (Mycobacterium tuberculosis, UniProt P9WHJ3); experiment: Fluorescence Cell-Free Homogeneous Dose Retest to Identify Inhibitors of RecA-Intein Splicing Activity. [Related pubchem assays (depositor defined):AID2097, AID2223, AID489010, AID492950]; assay type: functional
T3 sequence (P9WHJ3 whole entry): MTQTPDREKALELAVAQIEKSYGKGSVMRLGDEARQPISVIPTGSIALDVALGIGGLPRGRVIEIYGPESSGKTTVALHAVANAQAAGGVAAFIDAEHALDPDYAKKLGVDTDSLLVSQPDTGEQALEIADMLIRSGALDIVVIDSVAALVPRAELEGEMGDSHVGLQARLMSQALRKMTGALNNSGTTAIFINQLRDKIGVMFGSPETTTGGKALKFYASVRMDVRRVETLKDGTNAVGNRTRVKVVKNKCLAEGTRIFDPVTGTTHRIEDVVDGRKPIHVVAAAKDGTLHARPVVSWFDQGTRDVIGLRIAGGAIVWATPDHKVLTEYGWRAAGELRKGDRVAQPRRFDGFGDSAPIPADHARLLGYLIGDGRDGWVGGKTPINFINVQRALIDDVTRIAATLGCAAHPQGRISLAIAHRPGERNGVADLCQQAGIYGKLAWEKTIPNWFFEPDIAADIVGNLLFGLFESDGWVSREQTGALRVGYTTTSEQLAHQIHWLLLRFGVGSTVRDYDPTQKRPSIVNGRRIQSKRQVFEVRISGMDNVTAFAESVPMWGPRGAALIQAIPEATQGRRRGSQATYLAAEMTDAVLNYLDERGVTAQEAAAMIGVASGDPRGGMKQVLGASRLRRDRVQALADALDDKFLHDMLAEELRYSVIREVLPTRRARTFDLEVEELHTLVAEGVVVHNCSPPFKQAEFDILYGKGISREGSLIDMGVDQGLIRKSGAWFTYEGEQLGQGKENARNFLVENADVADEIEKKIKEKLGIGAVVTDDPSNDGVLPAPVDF

[17] = target: T4, Replicative DNA helicase DnaB (Mycobacterium tuberculosis, UniProt P9WMR3); experiment: DnaB intein splicing inhibitors, dose response, biochemical, cell-free fluorescence (AID 449749); assay type: functional
T4 sequence (P9WMR3 whole entry): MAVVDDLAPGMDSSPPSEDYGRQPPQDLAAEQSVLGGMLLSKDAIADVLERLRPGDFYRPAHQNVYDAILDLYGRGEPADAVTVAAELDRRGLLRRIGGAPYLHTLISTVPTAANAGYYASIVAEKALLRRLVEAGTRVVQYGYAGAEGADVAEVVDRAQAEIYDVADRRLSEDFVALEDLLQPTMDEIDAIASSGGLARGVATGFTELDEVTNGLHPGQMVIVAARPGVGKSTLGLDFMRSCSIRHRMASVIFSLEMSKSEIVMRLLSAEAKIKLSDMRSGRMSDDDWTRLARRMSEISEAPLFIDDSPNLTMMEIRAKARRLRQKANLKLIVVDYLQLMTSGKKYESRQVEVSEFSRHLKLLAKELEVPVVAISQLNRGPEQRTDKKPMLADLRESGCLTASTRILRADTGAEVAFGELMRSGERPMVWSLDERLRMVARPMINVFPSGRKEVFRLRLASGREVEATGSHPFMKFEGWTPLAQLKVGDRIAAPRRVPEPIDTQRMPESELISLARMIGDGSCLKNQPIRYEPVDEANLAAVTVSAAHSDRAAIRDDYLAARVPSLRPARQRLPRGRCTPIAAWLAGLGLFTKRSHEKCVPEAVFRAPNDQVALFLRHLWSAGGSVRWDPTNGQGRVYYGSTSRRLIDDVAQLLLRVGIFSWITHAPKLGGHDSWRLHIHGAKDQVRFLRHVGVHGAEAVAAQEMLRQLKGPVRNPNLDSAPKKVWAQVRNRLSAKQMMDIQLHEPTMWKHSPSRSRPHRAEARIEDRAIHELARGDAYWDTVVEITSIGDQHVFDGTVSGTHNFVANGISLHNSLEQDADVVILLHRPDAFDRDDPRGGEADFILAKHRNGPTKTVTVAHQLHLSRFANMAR

[18] = target: T5, Apoptotic protease-activating factor 1 (Homo sapiens, UniProt O14727); assay type: functional
T5 sequence (O14727 whole entry): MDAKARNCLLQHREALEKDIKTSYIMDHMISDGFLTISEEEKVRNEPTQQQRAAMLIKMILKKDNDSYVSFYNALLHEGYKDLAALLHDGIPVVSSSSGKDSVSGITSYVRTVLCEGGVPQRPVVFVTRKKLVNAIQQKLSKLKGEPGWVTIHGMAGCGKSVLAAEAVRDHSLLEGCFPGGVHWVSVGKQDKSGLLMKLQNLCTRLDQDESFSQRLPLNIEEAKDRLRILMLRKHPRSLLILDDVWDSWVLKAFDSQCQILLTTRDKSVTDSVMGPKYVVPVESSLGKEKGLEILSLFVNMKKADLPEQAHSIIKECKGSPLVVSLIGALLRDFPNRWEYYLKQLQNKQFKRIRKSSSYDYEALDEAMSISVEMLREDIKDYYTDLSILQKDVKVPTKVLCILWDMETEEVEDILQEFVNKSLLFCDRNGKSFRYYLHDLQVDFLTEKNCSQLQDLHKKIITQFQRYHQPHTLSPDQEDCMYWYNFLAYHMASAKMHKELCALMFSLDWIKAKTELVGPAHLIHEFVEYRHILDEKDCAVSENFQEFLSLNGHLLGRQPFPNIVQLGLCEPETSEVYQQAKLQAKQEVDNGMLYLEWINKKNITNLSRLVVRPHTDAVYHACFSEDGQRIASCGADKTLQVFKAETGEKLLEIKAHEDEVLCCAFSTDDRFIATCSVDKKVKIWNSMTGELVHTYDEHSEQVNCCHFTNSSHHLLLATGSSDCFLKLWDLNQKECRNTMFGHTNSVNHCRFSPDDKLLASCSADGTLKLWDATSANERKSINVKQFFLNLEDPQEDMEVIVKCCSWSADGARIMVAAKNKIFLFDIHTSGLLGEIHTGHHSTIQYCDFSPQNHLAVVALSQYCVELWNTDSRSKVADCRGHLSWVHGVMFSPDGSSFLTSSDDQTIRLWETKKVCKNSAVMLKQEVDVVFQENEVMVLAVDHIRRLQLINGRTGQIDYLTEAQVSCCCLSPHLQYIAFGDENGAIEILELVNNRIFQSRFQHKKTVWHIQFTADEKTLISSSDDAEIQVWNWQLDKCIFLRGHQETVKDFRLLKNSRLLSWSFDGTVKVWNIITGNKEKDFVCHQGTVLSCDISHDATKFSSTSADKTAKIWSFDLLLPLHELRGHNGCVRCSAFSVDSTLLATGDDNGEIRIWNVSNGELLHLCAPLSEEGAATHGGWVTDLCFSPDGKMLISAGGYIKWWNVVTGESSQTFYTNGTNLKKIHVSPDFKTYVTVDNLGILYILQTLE

Cc1c(NC(=O)c2cccc(NC(=O)COc3ccccc3C#N)c2)c(=O)n(-c2ccccc2)n1C
AC50 [1]: 4.53 µM (active) | AC50 [2]: 2.66 µM (active) | AC50 (HEK293): 5.77 µM (active)

c1ccc2c(c1)nc(N1CCCCCC1)c1ccccc12
IC50 [3]: 17.4 µM (active)

CCCCOc1ccc(C(=O)NNC(=S)NC(=O)CC)cc1
EC50 [4]: > 160 µM (inactive) | IC50 (Vero [5]): 5.78 µM (active) | CC50 (Vero [6]): 13.2 µM (active) | AC50 [7]: 4.33 µM (active) | AC50 (INS1): 3.17 µM (active) | EC50 [8]: 0.621 µM (active)

O=c1cc(-c2ccc(O)cc2)oc2ccc3ccccc3c12
AC50 [9]: 41.6 µM (active) | AC50 [10]: 5.41 µM (active) | AC50 [11]: 2.15 µM (active) | AC50 [12]: 31.3 µM (active) | AC50 (Paired box protein Pax-8): 8.88 µM (active)

c1coc(-c2nc3nc4ccccc4n3nc2-c2ccco2)c1
IC50 (Genome polyprotein): 99.3 µM (active) | CC50 (Vero [13]): > 40 µM (active)

CN(C)c1ccc(-c2cc(Nc3ccc(F)cc3)ncn2)cc1
AC50 (Cytochrome P450 2C9): inconclusive | AC50 (Cytochrome P450 2D6): 39.8 µM (inconclusive)

CCN(C1CCCCC1)S(=O)(=O)c1ccc(S(=O)(=O)NCc2ccncc2)cc1
AC50 (Cytochrome P450 1A2): 15.8 µM (inconclusive) | AC50 [14]: 3.52 µM (active) | AC50 (INS1): 5.12 µM (active) | AC50 [15]: 7.99 µM (active)

Cc1cccc(C(=O)Nc2ccc(C(=O)N/N=C/c3ccco3)cc2)c1
IC50 [3]: 4.79 µM (active)

COc1ccc(S(=O)(=O)N(C)C[C@@H]2Oc3ccc(NC(=O)C4CCCCC4)cc3CC(=O)N([C@H](C)CO)C[C@@H]2C)cc1
AC50 [16]: 0.574 µM (active) | AC50 [14]: 2.96 µM (active) | AC50 [15]: 4.51 µM (active)

Cc1cc(C(=O)N/N=C/c2c(C)nn(-c3ccccc3)c2O)[nH]n1
IC50 (Nonstructural protein 1): 11.8 µM (active) | EC50 (Protein RecA): 27 µM (active) | AC50 [17]: 226 µM (active) | IC50 [18]: 6.97 µM (active)

COC(COC(N)=O)C1=C(N2CC2)C(=O)C(C)=C(N2CC2)C1=O (stereo not drawn) [CARBOQUONE]
IC50 (Vero [5]): > 25 µM (active) | CC50 (Vero [6]): 0.3 µM (active)
